# Laboratory results taken from patent publication US7238469B2, “Carbon monoxide improves outcomes in tissue and organ transplants and suppresses apoptosis” (priority 2001, dated 2007).
# Tests used:
# [1] = test system: βTC3 cells; experiment: TNF-α mediated apoptosis of β-gal transfected βTC3 cells (percentage of viable cells); type: cell-based, murine
# Method: The murine insulinoma cell line βTC3 (DSMZ, Braunschweig, Germany) was cultured in Dulbecco's Modified Eagle's Medium (DMEM) (Life Technologies, Grand Island, N.Y., USA) supplemented with 2 mM L-glutamine, 100 U/ml penicillin G, 100 U/ml streptomycin and 10% Fetal Calf Serum (FCS) (Life Technologies) and incubated in humidified 5% CO2/95% air at 37° C. This murine β-cell line, derived from transgenic mice carrying a hybrid insulin-promoter simian virus 40 tumor antigen, is known to maintain the features of differentiated β-cells for about 50 passages in culture. […] Compared to other frequently used transformed β-cell lines such as RIN-m5F and HIT, levels of secreted insulin are closer to normal β-cells in the βTC3 cell line. Thus, these cells are useful for studying β-cell regulation and gene expression (D'Ambra et al., Endocrinology 726:2815–22, 1990).
# βTC3 were seeded at 3×10^5 cells in 16 mm wells and transfected 15 to 20 hours later using Lipofectamine plus™ reagents (Life Technologies) according to the manufacturer's instructions. Total DNA was maintained constant using empty pcDNA3 vector. The percentage of viable cells was assessed by normalizing the percentage of viable cells of each DNA preparation to the number of control-transfected cells without the apoptotic stimulus (100% viability) (Soares et al., Nature Med. 4:1073–1077, 1998; Sato et al., J. Immunol. 166:4185–4194, 2001).
# Murine recombinant TNF-α (R&D Systems) was dissolved in PBS with 1% bovine serum albumin and added to the culture medium (17.5 ng/ml=500 U) 24 hours after transfection. The caspase-3 inhibitor Z-DEVD-FMK and the caspase-8 inhibitor IETD-CHO (Calbiochem, San Diego, Calif.) were dissolved in dimethyl sulphoxide (DMSO, Sigma) and added to the culture medium (10 μM and 1 μM respectively) two hours before treatment with TNF-α. Tin protoporphyrin (SnPPIX) (Porphyrin Products, Logan, Utah) was dissolved (10 mM) in 100 mM NaOH and added 6 hours after transfection to the culture medium (50 μM). The guanylyl cyclase inhibitor 1H[1,2,4]oxadiazolo[4,3-α]quinoxalin-1 (ODQ; Calbiochem) was dissolved in DMSO and added to the culture medium (100 μM) 6 hours after transfection. The cGMP analogue 8-bromoguanosine-3′-5′-cyclic-monophosphate (8-Br-cGMP) (Sigma) was dissolved in water and added to the culture medium (10 μM) 30 minutes before induction of apoptosis. The protein kinase G inhibitor KT5823 (Calbiochem) was dissolved in DMSO and added to the culture medium (1.6 μM) 6 hours after transfection.
# Cells and islets were exposed to 1% carbon monoxide in compressed air balanced with 5% CO2, as described elsewhere (see, e.g., Otterbein et al., Nature Med. 6:422–428, 2000). Islets were incubated in RPMI medium pre-saturated with carbon monoxide (4° C. overnight, 1% CO, 5% CO2) for two hours at 37° C. while treatment with 1% CO, 5% CO2 was continued.
# [2] = test system: mouse hearts transplanted into rats; experiment: Mouse-to-rat heterotopic cardiac transplant, graft survival; type: in vivo, BALB/c mouse hearts, Lewis rats; settings: for graft outcome: mouse hearts into rats, FePPIX with CVF plus CsA, CO 400 ppm in SnPPIX-treated rats
# Text: BALB/c mouse hearts were used as donor organs for transplantation into inbred adult male Lewis rats (Harlan Sprague-Dawley, Indianapolis, Ind.). Animals were housed in accordance with guidelines from the American Association for Laboratory Animal Care, and research protocols were approved by the Institutional Animal Care and Use Committees of the Beth Israel Deaconess Medical Center.
# Animals were anesthetized by a combination of methoxyflurane (Pitman-Moore, Mundelain, Ill.) inhalation and pentobarbital (Abbott, North Chicago, Ill.) at a dose of 30–50 mg/kg i.p. during all procedures. Heterotopic cardiac transplants were performed as described previously (Berk et al., Physiol Rev. 8:999–1030, 2001; Petkova et al., J Biol. Chem. 276:7932–7936, 2001). Graft survival was assessed daily by palpation. Rejection was diagnosed by cessation of ventricular contractions and confirmed by histologic examination.
# Cobra venom factor (CVF; which blocks complement activation) (Quidel, San Diego, Calif.) was administered i.p. on day −1 (60 U/kg) and on day 0 (20 U/kg) with respect to the day of transplantation (day 0). Cyclosporin A (CsA; Novartis, Basel, Switzerland), which blocks T cell activation, was administered i.m. (15 mg/kg) starting at day 0 and daily thereafter until the end of each experiment. Tin protoporphyrin (SnPPIX), cobalt protoporphyrin (CoP-PIX), and iron protoporphyrin (FePPIX; Porphyrin Products, Logan, Utah) were diluted in 100 mM NaOH to a stock solution of 50 mM and kept at −70° C. until used. Light exposure was limited as much as possible. Both SnPPIX and FePPIX were administered i.p. (30 μM/kg) in PBS. FePPIX and SnPPIX were administered to the donor at days −2 and −1 (30 μM/kg) and to the recipient at the time of transplantation (day 0) and daily thereafter (30 μM/kg).
# Briefly, CO at a concentration of 1% (10,000 parts per million; ppm) in compressed air was mixed with balanced air (21% oxygen) in a stainless steel mixing cylinder before entering the exposure chamber. CO concentrations were controlled by varying the flow rates of CO in a mixing cylinder before delivery to the chamber. Because the flow rate is primarily determined by the O2 flow, only the CO flow was changed to deliver the final concentration to the exposure chamber. A CO analyzer (Interscan Corporation, Chatsworth, Calif.) was used to measure CO levels continuously in the chamber. Graft donors were placed in the CO exposure chamber 2 days before transplantation. Graft recipients were placed in the exposure chamber immediately following transplantation and were kept in the exposure chamber for 14 (n=3) or 16 (n=3) days. CO concentration was maintained between 250 and 400 ppm at all times. Animals were removed daily from the chamber to assess graft survival and to administer CsA, SnPPIX, or FePPIX, as described above.
smiles,measurement,setting,value
"Nc1nc2c(nc(Br)n2[C@@H]2O[C@@H]3COP(=O)(O)O[C@H]3[C@H]2O)c(=O)[nH]1 [8-Br-cGMP, 8-bromoguanosine-3′-5′-cyclic-monophosphate]",effect on βTC3 apoptosis,"[1]; TNF-α, 8-Br-cGMP 10 μM, no CO",suppressed βTC3 apoptosis to an extent similar to that seen with carbon monoxide
"[C-]#[O+] [CO, carbon monoxide]",effect on β-cell apoptosis induced by etoposide or serum starvation,[1]; 1% CO,suppressed
same,"effect on β-cell apoptosis, CO exposure immediately after TNF-α","[1]; 1% CO for one hour, tested 24 hours later",sufficient to prevent β-cell apoptosis
same,"effect on β-cell apoptosis, CO exposure after induction of apoptosis","[1]; 1% CO for one hour, two hours after TNF-α stimulation",still able to suppress β-cell apoptosis
same,effect on TNF-α mediated apoptosis,"[1]; 1% CO, action of HO-1 suppressed by SnPPIX",suppressed TNF-α mediated apoptosis to a similar extent as HO-1
same,"effect on β-cell apoptosis, pre-incubation with CO","[1]; one hour pre-incubation, TNF-α two to three hours after end of CO treatment",prevented β-cell apoptosis
same,dose of CO used as fraction of the lethal dose,[2]; 400–500 ppm,approximately one-twentieth
same,graft outcome,[2],survived long term
same,untoward reactions,[2]; rats and mice exposed to CO,did not exhibit untoward reactions
same,time grafts continued to function,"[2]; rats treated with SnPPIX, CO 400 ppm discontinued 14 or 16 days after transplantation",> 50 days
"C=CC1=C(C)c2cc3[n-]c(cc4[n-]c(cc5nc(cc1n2)C(C)=C5C=C)c(C)c4CCC(=O)O)c(CCC(=O)O)c3C.[Fe+2] [FePPIX, iron protoporphyrin]",graft outcome,[2],did not lead to graft rejection
"O=c1onc2cnc3ccccc3n12 [ODQ, 1H[1,2,4]oxadiazolo[4,3-α]quinoxalin-1]",effect on the anti-apoptotic effect of exogenous CO,"[1]; TNF-α, 1% CO, ODQ 100 μM, KT5823 1.6 μM",suppressed the anti-apoptotic effect of CO
"C=Cc1c2[n-]c(c1C)/C=c1\[n-]/c(c(C)c1C=C)=C\c1[n-]c(c(CCC(=O)O)c1C)C=c1[n-]/c(c(C)c1CCC(=O)O)=C\2.[Sn+4] [SnPPIX, tin protoporphyrin IX]",anti-apoptotic effect of HO-1 over-expression when HO-1 activity was blocked,"[1]; TNF-α, SnPPIX 50 μM",the anti-apoptotic effect was suppressed
same,time to graft rejection after transplantation,"[2]; SnPPIX to donor and recipient, despite CVF plus CsA",3 to 7 days
